Measured values: patent publication US9943537B2, “Antitumor agent and antitumor effect enhancer” (TAIHO PHARMACEUTICAL CO., LTD., priority 2013, dated 2018)

How the values were obtained:
[1] = tested on: human colon cancer cell line (Co-3); assay: Co-3 xenograft in nude mice, relative tumor volume; FTD/TPI oral Days 1 to 14, panitumumab into abdominal cavity twice a week for two weeks; assay type: in vivo
Protocol: (§1) A human colon cancer cell line (Co-3) was transplanted onto the right chest of a five to six week-old BALB/cA Jcl-nu mouse. The length (mm) and the breadth (mm) of the tumor after the tumor transplantation were measured, and the tumor volume (TV) was calculated. Then, the mouse was allocated into each group such that the average TV in each group was equal, and the day when the grouping (n=6) was implemented was assumed to be Day 0.
(§2) The administration dose of the drug was 10 mL/kg, and the FTD/TPI combination drug (a mixture of FTD and TPI at the molar ratio of 1:0.5) was prepared to be 150 mg/kg/day as the dose of FTD. Panitumumab (Vectibix (registered trademark) injection, Amgen Inc.) was prepared to be 0.30, 0.89, 2.7 and 8 mg/kg/day. The FTD/TPI combination drug was orally administered on Days 1 to 14 every day, and panitumumab was administered into the abdominal cavity for two weeks at a frequency of twice a week from Day 1. To the combination-treated group, the FTD/TPI combination drug and panitumumab were administered in the same doses and the same administration schedules as those of the single agent-treated group.
[…] The chronological changes of RTV were compared of no treatment group (control), the FTD/TPI combination drug-treated group, the panitumumab-treated group and the combination FTD/TPI combination drug and panitumumab treated group. In addition, the weight loss as the toxicity was evaluated.

[2] = Body weight change of Co-3-bearing nude mice, panitumumab study (toxicity); assay type: in vivo, mouse
Protocol: as §1, §2
As an index of the antitumor effect, TV on Days 5, 8, 12 and 15 was calculated in each group, and the relative tumor volume (RTV) for Day 0 was obtained according to the formula of Example 1 and plotted. The chronological changes of RTV were compared of no treatment group (control), the FTD/TPI combination drug-treated group, the panitumumab-treated group and the combination FTD/TPI combination drug and panitumumab treated group. In addition, the weight loss as the toxicity was evaluated.

[3] = tested on: human colon cancer cell line (KM20C); assay: KM20C xenograft in nude mice, relative tumor volume; FTD/TPI oral Days 1 to 14, bevacizumab into abdominal cavity twice a week for two weeks; assay type: in vivo
Protocol: as §1, with “(KM20C)” for “(Co-3)”, “(n=6 to 7)” for “(n=6)”
(§3) The administration dose of the drug was 10 mL/kg, and the FTD/TPI combination drug (a mixture of FTD and TPI at a molar ratio of 1:0.5) was prepared to be 150 mg/kg/day as the dose of FTD.
(§4) As an index of the antitumor effect, the TV in each group was calculated, and the relative tumor volume (RTV) for Day 0 was obtained from the equation below and plotted. The chronological changes of RTV were compared among no treatment group (control), an FTD/TPI combination drug-treated group, a bevacizumab-treated group, and a FTD/TPI combination drug and bevacizumab combination-treated group. In addition, the weight loss as the toxicity was evaluated. TV(mm^3)=(length×breadth^2)/2 RTV=(TV on evaluation day)/(TV on Day 0)

[4] = Body weight change of KM20C-bearing nude mice (toxicity); assay type: in vivo, mouse
Protocol: as §1, with “(KM20C)” for “(Co-3)”, “(n=6 to 7)” for “(n=6)”
as §3
As an index of the antitumor effect, the TV in each group was calculated, and the relative tumor volume (RTV) for Day 0 was obtained from the equation below and plotted. […] In addition, the weight loss as the toxicity was evaluated. TV(mm^3)=(length×breadth^2)/2 RTV=(TV on evaluation day)/(TV on Day 0)

[5] = tested on: human breast cancer cell line (MC-2); assay: MC-2 xenograft in nude mice, relative tumor volume and days till RTV reached 2; FTD/TPI and bevacizumab; assay type: in vivo
Protocol: as §1, with “(KM20C)” for “(Co-3)”, “(n=6 to 7)” for “(n=6)”
as §4
(§5) Next, a test was performed in the same manner using a human breast cancer cell line (MC-2).
With respect to the time period during which the tumor volume doubled from Day 0 (namely, RTV becomes 2), the results of the combination-treated group were predicted from the single agent-treated group of FIGS. 5 and 6. The “length of days till RTV actually reached 2” was calculated under the assumption that RTV on the measurement day when RTV firstly exceeded 2 changes according to a linear function from RTV on the measurement day immediately before the day.

[6] = Body weight change of MC-2-bearing nude mice (toxicity); assay type: in vivo, mouse; details: MC-2, Day 15, dose 1.5 mg/kg/day
Protocol: as §1, with “(KM20C)” for “(Co-3)”, “(n=6 to 7)” for “(n=6)”
as §4, §5

[7] = Co-3, Day 29, dose 0.30 mg/kg/day
[8] = Co-3, Day 29, dose 0.89 mg/kg/day
[9] = Co-3, Day 29, dose 2.7 mg/kg/day
[10] = MC-2, Day 15, dose 1.5 mg/kg/day

Panitumumab: anti-EGFR human-type fully monoclonal antibody (Vectibix injection, Amgen Inc.)
IR (%) tumor growth inhibition rate [1, 7]: 23.0% | RTV (mean ± SD) [1, 7]: 18.15 ± 6.79 | IR (%) tumor growth inhibition rate [1, 8]: 35.9% | RTV (mean ± SD) [1, 8]: 15.10 ± 7.51 | IR (%) tumor growth inhibition rate [1, 9]: 46.1% | RTV (mean ± SD) [1, 9]: 12.71 ± 4.37 | IR (%) tumor growth inhibition rate ([1]; Co-3, Day 29, dose 8 mg/kg/day): 45.0% | RTV (mean ± SD) ([1]; Co-3, Day 29, dose 8 mg/kg/day): 12.97 ± 2.33 | Body weight change (%, mean ± SD) [2, 7]: −11.3 ± 5.3% | Body weight change (%, mean ± SD) [2, 8]: −6.7 ± 4.3% | Body weight change (%, mean ± SD) [2, 9]: −1.2 ± 3.1% | Body weight change (%, mean ± SD) ([2]; Co-3, Day 29, dose 8 mg/kg/day): −4.5 ± 4.5%

Bevacizumab: anti-VEGF humanized monoclonal antibody (Avastin injection, Chugai Pharmaceutical Co., Ltd.)
IR (%) tumor growth inhibition rate ([3]; Day 29, dose 0.20 mg/kg/day): 34.3% | RTV (mean ± SD) ([3]; Day 29, dose 0.20 mg/kg/day): 8.93 ± 2.79 | IR (%) tumor growth inhibition rate ([3]; Day 29, dose 0.55 mg/kg/day): 28.5% | RTV (mean ± SD) ([3]; Day 29, dose 0.55 mg/kg/day): 9.71 ± 4.99 | IR (%) tumor growth inhibition rate ([3]; Day 29, dose 1.7 mg/kg/day): 39.7% | RTV (mean ± SD) ([3]; Day 29, dose 1.7 mg/kg/day): 8.19 ± 2.29 | IR (%) tumor growth inhibition rate ([3]; Day 29, dose 5 mg/kg/day): 38.6% | RTV (mean ± SD) ([3]; Day 29, dose 5 mg/kg/day): 8.34 ± 1.82 | Body weight change (%, mean ± SD) ([4]; Day 29, dose 0.20 mg/kg/day): 9.7 ± 5.1% | Body weight change (%, mean ± SD) ([4]; Day 29, dose 0.55 mg/kg/day): 3.2 ± 6.0% | Body weight change (%, mean ± SD) ([4]; Day 29, dose 1.7 mg/kg/day): 5.2 ± 6.7% | IR (%) tumor growth inhibition rate [5, 10]: 41.1% | RTV (mean ± SD) [5, 10]: 3.06 ± 0.88 | Length of Days (day) till RTV actually reached 2 ([5]; MC-2, single agent, bevacizumab 1.5 mg/kg/day): 7.71 days | Body weight change (%, mean ± SD) [6]: 7.7 ± 3.7%
